Test results taken from patent publication US20250171431A1, “HETEROCYCLIC INHIBITORS OF IGF-1R FOR TREATMENT OF DISEASE” (HORIZON THERAPEUTICS IRELAND DAC, priority 2023, published 2025).

Each molecule was assayed against IGF-1R (Homo sapiens (Human), UniProt P08069) (assay: Example B-1: IGF-1R Assay (PC3 cells, IGF1 stimulation, AlphaLISA)). Settings: 200 ng/mL IGF1 stimulation, read-out: Biological Activity against IGF-1R IC50.
Format: cell-based
How it was run: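 PC3 cells were serum-starved 2 h, treated with serially diluted compounds for 2 h, then stimulated with IGF1 (200 ng/mL final) for 30 min. Lysates were read by AlphaLISA; % inhibition was calculated relative to vehicle and EC80 controls, with IC50 values binned into ranges.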

Sequence of IGF-1R (P08069 31-1367): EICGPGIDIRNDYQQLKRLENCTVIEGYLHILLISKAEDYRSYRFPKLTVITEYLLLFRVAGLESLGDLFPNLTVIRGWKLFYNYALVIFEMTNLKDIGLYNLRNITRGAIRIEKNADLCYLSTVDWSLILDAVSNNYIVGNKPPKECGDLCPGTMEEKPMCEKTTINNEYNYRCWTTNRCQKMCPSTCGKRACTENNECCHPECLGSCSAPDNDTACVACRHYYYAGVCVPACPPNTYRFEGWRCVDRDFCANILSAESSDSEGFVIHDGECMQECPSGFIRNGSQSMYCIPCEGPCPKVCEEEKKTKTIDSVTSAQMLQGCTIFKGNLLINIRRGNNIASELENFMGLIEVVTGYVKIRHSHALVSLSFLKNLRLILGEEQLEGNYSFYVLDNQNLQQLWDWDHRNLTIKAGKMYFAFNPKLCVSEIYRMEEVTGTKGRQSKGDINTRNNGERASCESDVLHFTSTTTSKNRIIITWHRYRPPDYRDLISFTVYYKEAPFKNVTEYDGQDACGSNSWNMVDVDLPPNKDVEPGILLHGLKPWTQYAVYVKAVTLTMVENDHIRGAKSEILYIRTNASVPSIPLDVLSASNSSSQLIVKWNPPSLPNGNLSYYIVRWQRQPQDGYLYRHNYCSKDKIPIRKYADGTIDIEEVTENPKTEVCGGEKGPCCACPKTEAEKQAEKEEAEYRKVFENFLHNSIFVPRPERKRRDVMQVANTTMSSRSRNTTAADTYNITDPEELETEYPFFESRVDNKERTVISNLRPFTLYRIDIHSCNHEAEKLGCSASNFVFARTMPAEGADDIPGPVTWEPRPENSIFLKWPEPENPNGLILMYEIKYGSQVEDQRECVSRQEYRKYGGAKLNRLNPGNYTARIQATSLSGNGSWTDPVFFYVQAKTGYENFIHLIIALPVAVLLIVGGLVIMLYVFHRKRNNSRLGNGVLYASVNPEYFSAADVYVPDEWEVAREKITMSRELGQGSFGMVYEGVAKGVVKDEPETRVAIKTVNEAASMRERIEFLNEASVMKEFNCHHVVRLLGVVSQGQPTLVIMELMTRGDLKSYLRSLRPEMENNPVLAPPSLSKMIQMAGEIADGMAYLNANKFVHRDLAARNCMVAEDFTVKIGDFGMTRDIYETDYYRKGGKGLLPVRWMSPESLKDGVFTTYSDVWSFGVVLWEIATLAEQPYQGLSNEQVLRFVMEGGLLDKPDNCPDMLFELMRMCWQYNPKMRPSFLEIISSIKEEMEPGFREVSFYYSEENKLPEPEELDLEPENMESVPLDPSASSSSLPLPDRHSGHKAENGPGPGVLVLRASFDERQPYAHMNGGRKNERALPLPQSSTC

| IC50 | SMILES |
| --- | --- |
| 500 to 2000 nM | COc1cc(Nc2nccc(Nc3cnc4cc(F)c(F)cc4c3)n2)cnc1N1CCN(CC(F)(F)F)CC1 [Compound 474, 4-(6,7-difluoro-3-quinolylamino)-2-{5-methoxy-6-[4-(2,2,2-trifluoroethyl)-1-piperazinyl]-3-pyridylamino}pyrimidine] |
| 500 to 2000 nM | COc1cc(Nc2nccc(Nc3cc4ccccc4nc3C)n2)ccc1OCCCN1CCCCC1 [Compound 424, 2-[3-methoxy-4-(3-piperidinopropoxy)phenylamino]-4-(2-methyl-3-quinolylamino)pyrimidine] |
| ≤ 500 nM | CN(C)CCOc1cc(Nc2nccc(Nc3cnc4ccccc4c3)n2)ccc1N1CCOCC1 [Compound 207, 2-{3-[2-(dimethylamino)ethoxy]-4-morpholinophenylamino}-4-(3-quinolylamino)pyrimidine] |
| ≤ 500 nM | COc1cc(N2CCN(C3COC3)CC2)ncc1Nc1nccc(Nc2cnc3ccc(Cl)cc3c2)n1 [Compound 494, 4-(6-chloro-3-quinolylamino)-2-{4-methoxy-6-[4-(3-oxetanyl)-1-piperazinyl]-3-pyridylamino}pyrimidine] |
| ≤ 500 nM | COc1cc(Nc2nccc(Nc3cnc4cc(F)c(F)cc4c3)n2)cnc1N1C[C@H]2C[C@@H]1CO2 [Compound 127, 2-(6-{(1R,4R)-2-oxa-5-azabicyclo[2.2.1]hept-5-yl}-5-methoxy-3-pyridylamino)-4-(6,7-difluoro-3-quinolylamino)pyrimidine] |
| 500 to 2000 nM | COc1cc(Nc2nccc(Nc3cnc4c(c3)C3CCC(C4)O3)n2)ccc1OCCCN1CCCCC1 (stereo not shown) [Compound 60, 2-[3-methoxy-4-(3-piperidinopropoxy)phenylamino]-4-{12-oxa-6-azatricyclo[7.2.1.0^2,7]dodeca-2(7),3,5-trien-4-ylamino}pyrimidine] |
| ≤ 500 nM | COc1cc(Nc2nccc(Nc3cnc4cc(F)c(F)cc4c3)n2)ccc1N1CCC(C)(O)CC1 [Compound 155, 1-(4-((4-((6,7-difluoroquinolin-3-yl)amino)pyrimidin-2-yl)amino)-2-methoxyphenyl)-4-methylpiperidin-4-ol] |
| ≤ 500 nM | COc1cc(Nc2nccc(Nc3cnc4c(c3)OCCO4)n2)ccc1O[C@H]1CC[C@@H](N(C)C)CC1 [Compound 273] |
| 500 to 2000 nM | COc1cc(Nc2nccc(Nc3cnc4cc(F)c(F)cc4c3)n2)cnc1N1CCOC(C)(C)C1 [Compound 157, N4-(6,7-difluoroquinolin-3-yl)-N2-(6-(2,2-dimethylmorpholino)-5-methoxypyridin-3-yl)pyrimidine-2,4-diamine] |
| ≤ 500 nM | COc1nc(N2CCC(C)(O)CC2)ccc1Nc1nccc(Nc2cnc3cc(F)c(F)cc3c2)n1 [Compound 487, 1-{5-[4-(6,7-difluoro-3-quinolylamino)-2-pyrimidinylamino]-6-methoxy-2-pyridyl}-4-methyl-4-piperidinol] |
| ≤ 500 nM | COc1cc(Nc2nccc(Nc3cnc4cc(F)c(F)cc4c3)n2)cnc1N1CC2(COC2)C1 [Compound 50, 4-(6,7-difluoro-3-quinolylamino)-2-{5-methoxy-6-(2-oxa-6-aza-6-spiro[3.3]heptyl)-3-pyridylamino}pyrimidine] |
| ≤ 500 nM | COc1nc(N2CCC(O)(C(F)(F)F)CC2)ccc1Nc1nccc(Nc2cc3cccc(F)c3[nH]c2=O)n1 [Compound 227, 8-fluoro-3-(2-{6-[4-hydroxy-4-(trifluoromethyl)-1-piperidyl]-2-methoxy-3-pyridylamino}-4-pyrimidinylamino)-1,2-dihydro-2-quinolinone] |
| ≤ 500 nM | COc1cc(Nc2nccc(Nc3cnc4c(F)cccc4c3)n2)ccc1OCCCN1CCCCC1 [Compound 96, 4-(8-fluoro-3-quinolylamino)-2-[3-methoxy-4-(3-piperidinopropoxy)phenylamino]pyrimidine] |
| ≤ 500 nM | COc1cc(Nc2ncc(F)c(Nc3cnc4ccccc4c3)n2)ccc1OCCCN1CCCCC1 [Compound 431, 5-fluoro-2-[3-methoxy-4-(3-piperidinopropoxy)phenylamino]-4-(3-quinolylamino)pyrimidine] |

More lines, now with the values behind:

| SMILES | IC50 |
| --- | --- |
| COc1ccc2cc(Nc3ccnc(Nc4ccc(O[C@H]5C[C@H]6COC[C@@H](C5)N6C)cc4)n3)cnc2c1 [Compound 346, 2-(p-{(1R,5S,7r)-9-methyl-3-oxa-9-azabicyclo[3.3.1]non-7-yloxy}phenylamino)-4-(7-methoxy-3-quinolylamino)pyrimidine] | 500 to 2000 nM |
| COc1cc(Nc2nccc(Nc3cnc4[nH]cc(C)c4c3)n2)ccc1O[C@H]1C[C@@H](N(C)C)C1 [Compound 281, 2-{3-methoxy-4-[(1s,3s)-3-(dimethylamino)cyclobutoxy]phenylamino}-4-(3-methyl-1H-1,7-diazainden-5-ylamino)pyrimidine] | ≤ 500 nM |
| COc1cc(Nc2nccc(Nc3cnc4c(F)cc(F)cc4c3)n2)ccc1O[C@H]1C[C@@H](N(C)C)C1 [Compound 113, 4-(6,8-difluoro-3-quinolylamino)-2-{3-methoxy-4-[(1s,3s)-3-(dimethylamino)cyclobutoxy]phenylamino}pyrimidine] | ≤ 500 nM |
| COc1ccc2cc(Nc3ccnc(Nc4ccc(O[C@@H]5C[C@H]6COC[C@@H](C5)N6C)cc4)n3)cnc2c1 [Compound 345, 2-(p-{(1R,5S,7s)-9-methyl-3-oxa-9-azabicyclo[3.3.1]non-7-yloxy}phenylamino)-4-(7-methoxy-3-quinolylamino)pyrimidine] | 500 to 2000 nM |
| COc1cc(Nc2nccc(Nc3cc4ccccc4[nH]c3=O)n2)cnc1O[C@H]1C[C@@H](N(C)C)C1 [Compound 11, 3-(2-{5-methoxy-6-[(1s,3s)-3-(dimethylamino)cyclobutoxy]-3-pyridylamino}-4-pyrimidinylamino)-2(1H)-quinolinone] | ≤ 500 nM |
| Fc1cnc(Nc2ccc(O[C@H]3C[C@H](N4CCOCC4)C3)cc2)nc1Nc1cnc2ccccc2c1 [Compound 327, 5-fluoro-4-(3-quinolylamino)-2-{p-[(1r,3r)-3-morpholinocyclobutoxy]phenylamino}pyrimidine] | ≤ 500 nM |
| COc1cc(Nc2nccc(Nc3cnc(O[C@H]4CCCC[C@H]4O)c(F)c3)n2)ccc1O[C@H]1C[C@@H](N(C)C)C1 [Compound 180, (1R,2S)-2-[3-fluoro-5-(2-{3-methoxy-4-[(1s,3R)-3-(dimethylamino)cyclobutoxy]phenylamino}-4-pyrimidinylamino)-2-pyridyloxy]cyclohexanol] | ≤ 500 nM |
| COc1cc(Nc2nccc(Nc3cnc4cc(F)c(F)cc4c3)n2)cnc1N1CCN(CC#N)CC1 [Compound 49] | ≤ 500 nM |
| COc1cc(Nc2nccc(Nc3cc4ccccc4nc3OC)n2)ccc1O[C@H]1C[C@H](N(C)C)C1 [Compound 340, 4-(2-methoxy-3-quinolylamino)-2-{3-methoxy-4-[(1r,3r)-3-(dimethylamino)cyclobutoxy]phenylamino}pyrimidine] | ≤ 500 nM |
| COc1cc(Nc2nccc(Nc3cnc4ccc(Br)cc4c3)n2)ccc1O[C@H]1CC[C@@H](N(C)C)CC1 [Compound 33, 4-(6-bromo-3-quinolylamino)-2-{3-methoxy-4-[(1s,4s)-4-(dimethylamino)cyclohexyloxy]phenylamino}pyrimidine] | ≤ 500 nM |
| COc1cc(Nc2nccc(Nc3cnc4c(OC(F)(F)F)cccc4c3)n2)ccc1O[C@H]1C[C@H](N(C)C)C1 [Compound 7, 2-{3-methoxy-4-[(1r,3r)-3-(dimethylamino)cyclobutoxy]phenylamino}-4-(8-trifluoromethoxy-3-quinolylamino)pyrimidine] | ≤ 500 nM |
